According to the NIST ThermoML archive (doi:10.1016/j.jct.2018.03.031):
Where “and” joins values, the source holds several entries; their conditions need not be identical. Equal entries are not always repeated. Numbers after ± are expanded uncertainties.

What was measured:
[1] = Molar enthalpy of transition or fusion; settings: DSC
[2] = DSC
[3] = molar heat capacity at constant pressure; settings: 101.33 kPa, Large sample (1 g) DSC

SMILES | molar heat capacity at constant pressure ([3]; 283.15 K, Liquid) [J/K/mol] | molar heat capacity at constant pressure ([3]; 288.15 K, Liquid) [J/K/mol] | molar heat capacity at constant pressure ([3]; 293.15 K, Liquid) [J/K/mol] | molar heat capacity at constant pressure ([3]; 298.15 K, Liquid) [J/K/mol] | molar heat capacity at constant pressure ([3]; 303.15 K, Liquid) [J/K/mol] | molar heat capacity at constant pressure ([3]; 308.15 K, Liquid) [J/K/mol] | molar heat capacity at constant pressure ([3]; 313.15 K, Liquid) [J/K/mol] | molar heat capacity at constant pressure ([3]; 318.15 K, Liquid) [J/K/mol] | molar heat capacity at constant pressure ([3]; 323.15 K, Liquid) [J/K/mol] | molar heat capacity at constant pressure ([3]; 328.15 K, Liquid) [J/K/mol] | molar heat capacity at constant pressure ([3]; 333.15 K, Liquid) [J/K/mol] | molar heat capacity at constant pressure ([3]; 338.15 K, Liquid) [J/K/mol] | other results
CCCC[P+](CCCC)(CCCC)CCCC.FC(F)(F)C(F)(F)[P-](F)(F)(F)(C(F)(F)C(F)(F)F)C(F)(F)C(F)(F)F | – | – | – | – | – | – | – | – | – | – | – | – | Molar enthalpy of transition or fusion ([1]; Crystal 1): 1.86 ± 0.0717 kcal/mol; Molar enthalpy of transition or fusion ([1]; Crystal 2): 2.13 kcal/mol and 2.08 kcal/mol; Triple point temperature ([2]; Crystal 1): 342.15 ± 1 K; Triple point temperature ([2]; Crystal 2): 313.75 ± 0.8 K and 313.15 ± 1 K; molar heat capacity at constant pressure ([3]; 283.15 K, Crystal 2): 971 ± 24 J/K/mol; molar heat capacity at constant pressure ([3]; 288.15 K, Crystal 2): 981.2 ± 24 J/K/mol; molar heat capacity at constant pressure ([3]; 293.15 K, Crystal 2): 990.3 ± 24 J/K/mol; molar heat capacity at constant pressure ([3]; 298.15 K, Crystal 2): 1003.2 ± 25 J/K/mol; molar heat capacity at constant pressure ([3]; 303.15 K, Crystal 2): 1018.4 ± 25 J/K/mol; molar heat capacity at constant pressure ([3]; 323.15 K, Crystal 1): 1029.4 ± 25 J/K/mol; molar heat capacity at constant pressure ([3]; 328.15 K, Crystal 1): 1049.8 ± 26 J/K/mol
CCn1cc[n+](C)c1.O=S(=O)([N-]S(=O)(=O)C(F)(F)F)C(F)(F)F | 521 ± 13 | 522.6 ± 13 | 524.2 ± 13 | 526.4 ± 13 | 528.5 ± 13 | 530.7 ± 13 | 532.5 ± 13 | 534.8 ± 13 | 536.3 ± 13 | 538.9 ± 13 | 540.2 ± 13 | 541.7 ± 13 | –
COCC[N+]1(C)CCCC1.O=S(=O)([N-]S(=O)(=O)C(F)(F)F)C(F)(F)F | 575.3 ± 14 | 578.9 ± 14 | 580.3 ± 14 | 582.3 ± 14 | 584.7 ± 14 | 586.5 ± 14 | 588.9 ± 14 | 591.3 ± 14 | 593.2 ± 14 | 596.3 ± 15 | 597.5 ± 15 | 602.6 ± 15 | –
CCCC[N+]1(C)CCCC1.O=S(=O)([O-])C(F)(F)F [1-butyl-1-methylpyrrolidinium trifluoromethanesulfonate] | 436.5 ± 11 | 438.3 ± 11 | 439.9 ± 11 | 442.7 ± 11 | 445.3 ± 11 | 447.8 ± 11 | 452.2 ± 11 | 455.3 ± 11 | 457.2 ± 11 | 460 ± 11 | 461.9 ± 11 | 464.6 ± 11 | –
CCCCn1cc[n+](C)c1C.O=S(=O)([O-])C(F)(F)F [1-butyl-2,3-dimethylimidazolium trifluoromethanesulfonate] | – | – | – | – | – | – | – | – | 472.2 ± 12 | 474.3 ± 12 | 475.2 ± 12 | 478.7 ± 12 | Molar enthalpy of transition or fusion ([1]; Crystal 1): 3.59 kcal/mol; Molar enthalpy of transition or fusion ([1]; Crystal 2): 1.29 kcal/mol and 1.7 kcal/mol; Triple point temperature ([2]; Crystal 1): 315.25 ± 0.8 K and 316.15 ± 1 K; Triple point temperature ([2]; Crystal 2): 307.45 ± 0.8 K and 306.15 ± 1 K; molar heat capacity at constant pressure ([3]; 283.15 K, Crystal 2): 381.1 ± 9.4 J/K/mol; molar heat capacity at constant pressure ([3]; 288.15 K, Crystal 2): 394.6 ± 9.7 J/K/mol; molar heat capacity at constant pressure ([3]; 293.15 K, Crystal 2): 407.1 ± 10 J/K/mol
CCCCCCOS(=O)(=O)[O-].CC[n+]1ccn(C)c1 [3-ethyl-1-methyl-1H-imidazolium hexyl sulfate] | 505.2 ± 12 | 508.3 ± 12 | 509.1 ± 12 | 513.9 ± 13 | 517.4 ± 13 | 520.2 ± 13 | 523.1 ± 13 | 526 ± 13 | 528.4 ± 13 | 531.5 ± 13 | 534 ± 13 | 537.6 ± 13 | –
CCCCO [butan-1-ol] | 168 ± 4.1 | 171 ± 4.2 | 174.1 ± 4.3 | 177.9 ± 4.4 | 181.1 ± 4.4 | 184.5 ± 4.5 | 187.8 ± 4.6 | 191.4 ± 4.7 | 196 ± 4.8 | 200.1 ± 4.9 | 204.1 ± 5 | 208.4 ± 5.1 | –
